Test results reported in EPA's ToxRefDB 2.

Key:
[1] = tested on: dog; conditions: Chronic toxicity, beagle, Oral, Capsule, dose end: 12 month, group: systemic
[2] = tested on: rat; conditions: Prenatal developmental toxicity study, sprague dawley, Oral, Gavage/Intubation, dose end: 20 GD
[3] = tested on: mouse; conditions: Carcinogenicity, cd1, Oral, Feed, dose end: 24 month, group: systemic
[4] = tested on: rat; conditions: Combined chronic toxicity/carcinogenicity; sprague dawley; Oral; Feed; dose end: 24 month; group: systemic; systemic / in life observation / body weight / body weight
[5] = tested on: rat; conditions: Multigenerational reproductive toxicity study, sprague dawley, Oral, Feed, dose end: 2 generation
[6] = tested on: rat; conditions: Combined chronic toxicity/carcinogenicity, sprague dawley, Oral, Feed, dose end: 24 month, group: systemic
[7] = tested on: dog; conditions: Chronic toxicity; beagle; Oral; Feed; dose end: 52 week; group: systemic; systemic / hematology / erythrocyte (rbc) count differential / erythrocyte (rbc) + systemic / hematology / hemoglobin (hgb) / hemoglobin (…
[8] = tested on: rabbit; conditions: Prenatal developmental toxicity study, new zealand white, Oral, Gavage/Intubation, dose end: 19 GD
[9] = tested on: dog; conditions: Chronic toxicity; beagle; Oral; Feed; dose end: 52 week; group: systemic; systemic / hematology / erythrocyte (rbc) count differential / erythrocyte (rbc) + systemic / hematology / hemoglobin (hgb) / hemoglobin (…; remark: listed apart in the source
[10] = tested on: mouse; conditions: Carcinogenicity; cd1; Oral; [Not Specified]; dose end: 104 week; group: systemic; systemic / in life observation / body weight / body weight + systemic / in life observation / body weight / body weight gain
[11] = tested on: rat; conditions: Prenatal developmental toxicity study, sprague dawley, Oral, Gavage/Intubation, dose end: 16 GD
[12] = tested on: rabbit; conditions: Prenatal developmental toxicity study, new zealand white, Oral, Gavage/Intubation, dose end: 18 GD
[13] = tested on: rat; conditions: Multigenerational reproductive toxicity study, sprague dawley, Oral, Feed, dose end: 2 generation; remark: listed apart in the source
[14] = tested on: mouse; conditions: Subchronic oral toxicity in rodents, cd1, Feed, dose end: 13 week, group: systemic
[15] = tested on: mouse; conditions: Combined chronic toxicity/carcinogenicity, cd1, Oral, Feed, dose end: 104 week, group: systemic
[16] = tested on: rat; conditions: Subchronic oral toxicity in rodents, other, Feed, dose end: 13 week
[17] = tested on: rat; conditions: Subchronic oral toxicity in rodents, sprague-dawley, Feed, dose end: 13 week, group: systemic
[18] = tested on: rat; conditions: Combined chronic toxicity/carcinogenicity, other, Oral, Gavage/Intubation, dose end: 104 week, group: systemic
[19] = tested on: rat; conditions: Prenatal developmental toxicity study, sprague dawley, Oral, Gavage/Intubation, dose end: 15 GD
[20] = tested on: rat; conditions: Subchronic oral toxicity in rodents, sprague dawley, Feed, dose end: 90 day, group: systemic
[21] = tested on: hamster; conditions: Chronic toxicity, Oral, Feed, dose end: 24 month, group: systemic
[22] = systemic / in life observation / body weight / body weight gain + systemic / organ weight / liver / relative to body weight
[23] = systemic / in life observation / body weight / body weight gain + systemic / organ weight / liver / relative to body weight + systemic / …
[24] = group: developmental, developmental / developmental malformation / bone / misaligned + developmental / developmental malformation / general / hemorrhage + …
[25] = group: maternal, systemic / in life observation / body weight / body weight + systemic / in life observation / body weight / body weight gain + systemic / in…
[26] = systemic / in life observation / food consumption / food consumption
[27] = group: offspring, systemic / in life observation / body weight / offspring (pup) weight
[28] = group: offspring, systemic / in life observation / body weight / offspring (pup) weight + systemic / organ weight / brain / absolute + systemic / organ weight…
[29] = group: parental, systemic / organ weight / liver / relative to body weight + systemic / hematology / hematocrit (hct) / hematocrit (hct) + systemic / …
[30] = group: parental, systemic / organ weight / liver / relative to body weight + systemic / in life observation / body weight / body weight + systemic / in life …
[31] = group: reproductive, reproductive / offspring survival early / litter size / litter size
[32] = systemic / in life observation / clinical signs / hyperactivity
[33] = systemic / in life observation / clinical signs / hyperactivity + systemic / in life observation / body weight / body weight + systemic / in…
[34] = group: developmental, developmental / developmental malformation / aorta / double + developmental / developmental malformation / gallbladder / absent + …
[35] = group: maternal, systemic / in life observation / body weight / body weight gain
[36] = group: maternal, systemic / in life observation / body weight / body weight gain + reproductive / reproductive performance / aborted / aborted + systemic / …
[37] = group: developmental, systemic / in life observation / body weight / fetal weight
[38] = group: maternal, systemic / in life observation / clinical signs / alopecia + systemic / in life observation / clinical signs / vaginal discharge
[39] = group: maternal, systemic / in life observation / clinical signs / alopecia + systemic / in life observation / clinical signs / vaginal discharge + systemic…
[40] = group: developmental, developmental / developmental malformation / bone / short
[41] = group: developmental, developmental / developmental malformation / bone / short + developmental / developmental malformation / bone / [other]
[42] = group: maternal, reproductive / offspring survival early / offspring survival early other / NOS + reproductive / reproductive performance / resorptions / …
[43] = group: offspring, systemic / in life observation / clinical signs / tremors + systemic / in life observation / body weight / litter weight + systemic / in …
[44] = group: offspring, systemic / in life observation / clinical signs / tremors + systemic / pathology gross / skin / ulcer
[45] = group: parental, systemic / pathology gross / skin / ulcer
[46] = systemic / organ weight / liver / relative to body weight
[47] = systemic / pathology gross / skin / lesion(s) (nos) + systemic / pathology microscopic / skin / inflammation
[48] = group: cholinesterase, cholinesterase / cholinesterase / cholinesterase / erythrocyte cholinesterase (che)
[49] = group: systemic, systemic / hematology / erythrocyte (rbc) count differential / erythrocyte (rbc) + systemic / hematology / hematocrit (hct) / hematocrit (…
[50] = systemic / organ weight / heart / relative to body weight
[51] = systemic / in life observation / body weight / body weight + systemic / in life observation / water consumption / water consumption + …
[52] = systemic / pathology microscopic / mammary gland / fibroadenoma
[53] = group: developmental, developmental / developmental malformation / bone / absent + developmental / developmental malformation / bone / delayed ossification + …
[54] = group: maternal, systemic / in life observation / body weight / body weight gain + systemic / in life observation / clinical signs / blood around eyes and …
[55] = systemic / in life observation / body weight / body weight gain + systemic / organ weight / heart / relative to body weight
[56] = systemic / in life observation / mortality / mortality + systemic / pathology microscopic / kidney / inflammation
[57] = systemic / in life observation / mortality / mortality + systemic / pathology microscopic / kidney / inflammation + systemic / pathology …

CCSC(=O)N(CC(C)C)CC(C)C [Butylate]
LEL [1, 22]: 25 mg/kg/day | LOAEL [1, 22]: 25 mg/kg/day | NEL [1, 23]: 5 mg/kg/day | NOAEL [1, 23]: 5 mg/kg/day | LEL [2, 24]: 400 mg/kg/day | LOAEL [2, 24]: 400 mg/kg/day | NEL [2, 24]: 40 mg/kg/day | NOAEL [2, 24]: 40 mg/kg/day | LEL [2, 25]: 400 mg/kg/day | LOAEL [2, 25]: 400 mg/kg/day | NEL [2, 25]: 40 mg/kg/day | NOAEL [2, 25]: 40 mg/kg/day | LOAEL ([3]; systemic / in life observation / body weight / body weight + systemic / pathology microscopic / kidney / amyloid deposition + systemic / …): 80 mg/kg/day | LEL [3, 26]: 20 mg/kg/day | NEL [3, 26]: < 20 mg/kg/day | NOAEL ([3]; systemic / in life observation / food consumption / food consumption + systemic / in life observation / body weight / body weight + systemic…): 20 mg/kg/day | LEL [4]: 100 mg/kg/day | LOAEL [4]: 100 mg/kg/day | NEL [4]: 50 mg/kg/day | NOAEL [4]: 50 mg/kg/day | NEL [5, 27]: 10 mg/kg/day | NOAEL [5, 27]: 10 mg/kg/day | LEL [5, 28]: 50 mg/kg/day | LOAEL [5, 28]: 50 mg/kg/day | NEL [5, 29]: 10 mg/kg/day | NOAEL [5, 29]: 10 mg/kg/day | LEL [5, 30]: 50 mg/kg/day | LOAEL [5, 30]: 50 mg/kg/day | LEL [5, 31]: 200 mg/kg/day | LOAEL [5, 31]: > 200 mg/kg/day | NEL [5, 31]: 50 mg/kg/day | NOAEL [5, 31]: ≥ 200 mg/kg/day

COc1nc(C)nc(NC(=O)NS(=O)(=O)c2ccccc2Cl)n1 [Chlorsulfuron]
LEL [6, 32]: 30 mg/kg/day | LOAEL [6, 32]: 30 mg/kg/day | NEL [6, 33]: 2 mg/kg/day | NOAEL [6, 33]: 2 mg/kg/day | LEL [7]: 254 mg/kg/day | LOAEL [7]: 254 mg/kg/day | NEL [7]: 60.6 mg/kg/day | NOAEL [7]: 60.6 mg/kg/day | LEL [8, 34]: 400 mg/kg/day | LOAEL [8, 34]: 400 mg/kg/day | NEL [8, 34]: 200 mg/kg/day | NOAEL [8, 34]: 200 mg/kg/day | LEL [8, 35]: 200 mg/kg/day | LOAEL [8, 35]: 200 mg/kg/day | NEL [8, 36]: 75 mg/kg/day | NOAEL [8, 36]: 75 mg/kg/day | LEL [9]: 254 mg/kg/day | LOAEL [9]: 254 mg/kg/day | NEL [9]: 60.6 mg/kg/day | NOAEL [9]: 60.6 mg/kg/day | LEL [10]: 750 mg/kg/day | LOAEL [10]: 750 mg/kg/day | NEL [10]: 108 mg/kg/day | NOAEL [10]: 108 mg/kg/day | LEL [11, 37]: 1500 mg/kg/day | LOAEL [11, 37]: 1500 mg/kg/day | NEL [11, 37]: 500 mg/kg/day | NOAEL [11, 37]: 500 mg/kg/day | LEL [11, 38]: 500 mg/kg/day | LOAEL [11, 38]: 500 mg/kg/day | NEL [11, 39]: 165 mg/kg/day | NOAEL [11, 39]: 165 mg/kg/day

CC(C)C(Nc1ccc(C(F)(F)F)cc1Cl)C(=O)OC(C#N)c1cccc(Oc2ccccc2)c1 (stereo not given) [Fluvalinate]
LEL [12, 40]: 125 mg/kg/day | LOAEL [12, 40]: 125 mg/kg/day | NEL [12, 41]: 25 mg/kg/day | NOAEL [12, 41]: 25 mg/kg/day | LEL [12, 42]: 125 mg/kg/day | LOAEL [12, 42]: 125 mg/kg/day | NEL [12, 42]: 25 mg/kg/day | NOAEL [12, 42]: 25 mg/kg/day | LEL [13, 43]: 9.53 mg/kg/day | LOAEL [13, 43]: 9.53 mg/kg/day | NEL [13, 44]: 1.9 mg/kg/day | NOAEL [13, 44]: 1.9 mg/kg/day | LEL [13, 45]: 9.53 mg/kg/day | LOAEL [13, 45]: 9.53 mg/kg/day | NEL [13, 45]: 1.9 mg/kg/day | NOAEL [13, 45]: 1.9 mg/kg/day | LEL [14, 46]: 1 mg/kg/day | NEL [14, 46]: < 1 mg/kg/day | NOAEL ([14]; systemic / pathology gross / skin / lesion(s) (nos) + systemic / hematology / erythrocyte (rbc) count differential / erythrocyte (rbc) + …): 3 mg/kg/day | LOAEL ([14]; systemic / pathology gross / skin / lesion(s) (nos) + systemic / in life observation / body weight / body weight): 30 mg/kg/day | LEL [15, 47]: 10 mg/kg/day | NEL [15, 47]: 2 mg/kg/day | LOAEL ([15]; systemic / pathology microscopic / kidney / inflammation): 20 mg/kg/day | NOAEL ([15]; systemic / pathology microscopic / kidney / inflammation + systemic / pathology gross / skin / lesion(s) (nos) + systemic / pathology …): 10 mg/kg/day | LEL [16, 48]: 18.8 mg/kg/day | LOAEL [16, 48]: > 116 mg/kg/day | NEL [16, 48]: 7.7 mg/kg/day | NOAEL [16, 48]: ≥ 116 mg/kg/day | LEL [16, 49]: 1.82 mg/kg/day | LOAEL [16, 49]: 1.82 mg/kg/day | NEL [16, 49]: < 1.82 mg/kg/day | NOAEL [16, 49]: < 1.82 mg/kg/day | LOAEL ([17]; systemic / hematology / erythrocyte (rbc) count differential / erythrocyte (rbc)): 30 mg/kg/day | NOAEL ([17]; systemic / hematology / erythrocyte (rbc) count differential / erythrocyte (rbc) + systemic / clinical chemistry / albumin / albumin + …): 3 mg/kg/day | LEL [17, 50]: 0.3 mg/kg/day | NEL [17, 50]: < 0.3 mg/kg/day | LOAEL [18, 51]: 2.5 mg/kg/day | NOAEL [18, 51]: 1 mg/kg/day | LEL [18, 52]: 0.25 mg/kg/day | NEL [18, 52]: < 0.25 mg/kg/day | LEL [19, 53]: 50 mg/kg/day | LOAEL [19, 53]: > 50 mg/kg/day | NEL [19, 53]: 10 mg/kg/day | NOAEL [19, 53]: ≥ 50 mg/kg/day | LEL [19, 35]: 10 mg/kg/day | LOAEL [19, 35]: 10 mg/kg/day | NEL [19, 54]: 2 mg/kg/day | NOAEL [19, 54]: 2 mg/kg/day

O=[N+]([O-])c1ccc(O)cc1C(F)(F)F [3-Trifluoromethyl-4-nitrophenol]
LOAEL [20, 55]: 146 mg/kg/day | NEL [20, 55]: 25 mg/kg/day | NOAEL [20, 55]: 81 mg/kg/day | LEL [20, 50]: 45 mg/kg/day | LOAEL [21, 56]: 24.9 mg/kg/day | NOAEL [21, 56]: < 24.9 mg/kg/day | LEL [21, 57]: 24.9 mg/kg/day | NEL [21, 57]: < 24.9 mg/kg/day
